Test results: paper PMC9037210, “Novel 3-(6-methylpyridin-2-yl)coumarin-based chalcones as selective inhibitors of cancer-related carbonic anhydrases IX and XII endowed with anti-proliferative activity” (Journal of Enzyme Inhibition and Medicinal Chemistry, 2022)

What was measured:
OVCAR-4 = assay: NCI single (10 µM) dose SRB screening, OVCAR-4; assay type: cell-based, human; settings: 10 µM single dose, OVCAR-4, Ovarian cancer
Experimental: (§1) Following NCI protocol, sixteen MPCs were screened for their potential in vitro anticancer effects against human 59 cancer cell panels including prostate, leukaemia melanoma, colon, breast, CNS, renal, NSCLC, and ovarian cancers by National Cancer Institute (USA)[30].
(§2) The antiproliferative activities of MPC 3 and MPCs 5a–o were first evaluated in a 10 µM dose assay, with SRB assay used to determine cell survival and proliferation. […] The results of the cell growth inhibitory activities for MPCs 5g and 5l towards the different treated tumour cell lines were presented as GI% and presented in Table 3.
(§3) The anticancer test was conducted using the methods of the Drug Evaluation Branch, National Cancer Institute, Bethesda, MD, using 59 human tumour cell lines derived from nine human tissues. The GI50, TGI, and LC50 dose-response parameters were calculated for each medication.

UACC-257 = assay: NCI single (10 µM) dose SRB screening, UACC-257; assay type: cell-based, human; settings: 10 µM single dose, UACC-257, Melanoma
Experimental: as §1, §2, §3

hCA I = target: T1, hCA I (Homo sapiens, UniProt P00915); assay: stopped-flow CO2 hydrase assay, hCA I; assay type: biochemical; settings: stopped-flow, incubation time of 6 h, mean of three assays; read-out: KI CA I
T1 construct: made in house
T1 sequence (P00915 whole entry): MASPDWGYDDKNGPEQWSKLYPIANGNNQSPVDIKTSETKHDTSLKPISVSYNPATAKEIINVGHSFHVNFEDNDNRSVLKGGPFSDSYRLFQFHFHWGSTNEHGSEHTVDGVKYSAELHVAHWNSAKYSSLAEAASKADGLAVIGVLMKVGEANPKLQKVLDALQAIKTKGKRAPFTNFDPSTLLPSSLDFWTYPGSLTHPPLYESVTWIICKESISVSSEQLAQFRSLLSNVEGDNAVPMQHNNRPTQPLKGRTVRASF
Experimental: The newly synthesised MPCs (3 and 5a–o) were assessed for their CA inhibition activity employing the stopped-flow CO2 hydrase assay[29] for constitutional hCA (I/II) isoforms and cancer-linked hCA (IX/XII) isoforms.
The CA inhibition activity for the herein reported MPC derivatives was evaluated against the hCA isoforms I, II, IX, and XII using stopped-flow CO2 hydrase test[7]^,[33–36] (see the Supplementary Material).
Carbonic anhydrase inhibition assay
The carbonic anhydrase catalyzed CO2 hydration actions for all coumarin-based […]
Photophysics stopped-flow. The enzymes are recombinant proteins prepared in our lab. Phenol red (at a concentration of 0.2 mM) has been used as indicator, working at […]
mM Na2SO4 (for maintaining constant the ionic strength), following the initial rates of the CA-catalyzed CO2 hydration reaction for a period of 10-100 s. The CO2 concentrations ranged from 1.7 to 17 mM for the determination of the kinetic parameters and inhibition constants. For each inhibitor at least six traces of the initial 5-10% of the reaction have been used for determining the initial velocity. The uncatalyzed rates were determined in the same manner and subtracted from the total observed rates. Stock solutions of inhibitor (0.1 mM) were prepared in distilled-deionized water and dilutions up to 0.01 nM were done thereafter with the assay buffer. Inhibitor and enzyme solutions were preincubated together for 6 hrs. at room temperature prior to assay, in order to allow for the formation of the E-I complex. The inhibition constants were obtained by non-linear least-squares methods using PRISM 3 and the Cheng-Prusoff equation, and represent the mean from at least three different

SF-539 = assay: NCI single (10 µM) dose SRB screening, SF-539; assay type: cell-based, human; settings: 10 µM single dose, SF-539, CNS cancer
Experimental: as §1, §2, §3

KM 12 = assay: NCI single (10 µM) dose SRB screening, KM 12; assay type: cell-based, human; settings: 10 µM single dose, KM 12, Colon cancer
Experimental: as §1, §2, §3

CCRF-CEM = assay: NCI single (10 µM) dose SRB screening, CCRF-CEM; assay type: cell-based, human; settings: 10 µM single dose, Leukaemia
Experimental: as §1, §2, §3

NCI/ADR-RES = assay: NCI single (10 µM) dose SRB screening, NCI/ADR-RES; assay type: cell-based, human; settings: 10 µM single dose, Ovarian cancer
Experimental: as §1, §2, §3

NCI-H460 = assay: NCI single (10 µM) dose SRB screening, NCI-H460; assay type: cell-based, human; settings: 10 µM single dose, NCI-H460, NSC lung cancer
Experimental: as §1, §2, §3

SF-295 = assay: NCI single (10 µM) dose SRB screening, SF-295; assay type: cell-based, human; settings: 10 µM single dose, SF-295, CNS cancer
Experimental: as §1, §2, §3

SN 12 C = assay: NCI single (10 µM) dose SRB screening, SN 12 C; assay type: cell-based, human; settings: 10 µM single dose, Renal cancer
Experimental: as §1, §2, §3

BT-549 = assay: NCI single (10 µM) dose SRB screening, BT-549; assay type: cell-based, human; settings: 10 µM single dose, BT-549, Breast cancer
Experimental: as §1, §2, §3

SK-MEL-2 = assay: NCI single (10 µM) dose SRB screening, SK-MEL-2; assay type: cell-based, human; settings: 10 µM single dose, SK-MEL-2, Melanoma
Experimental: as §1, §2, §3

SK-MEL-5 = assay: NCI single (10 µM) dose SRB screening, SK-MEL-5; assay type: cell-based, human; settings: 10 µM single dose, SK-MEL-5, Melanoma
Experimental: as §1, §2, §3

MOLT-4 = assay: NCI single (10 µM) dose SRB screening, MOLT-4; assay type: cell-based, human; settings: 10 µM single dose, MOLT-4, Leukaemia
Experimental: as §1, §2, §3

MDA-MB-468 = assay: NCI single (10 µM) dose SRB screening, MDA-MB-468; assay type: cell-based, human; settings: 10 µM single dose, MDA-MB-468, Breast cancer
Experimental: as §1, §2, §3

MDA-MB-231 = assay: NCI single (10 µM) dose SRB screening, MDA-MB-231; assay type: cell-based, human; settings: 10 µM single dose, MDA-MB-231, Breast cancer
Experimental: as §1, §2, §3

K-562 = assay: NCI single (10 µM) dose SRB screening, K-562; assay type: cell-based, human; settings: 10 µM single dose, K-562, Leukaemia
Experimental: as §1, §2, §3

HCC-2998 = assay: NCI single (10 µM) dose SRB screening, HCC-2998; assay type: cell-based, human; settings: 10 µM single dose, HCC-2998, Colon cancer
Experimental: as §1, §2, §3

PC-3 = assay: NCI single (10 µM) dose SRB screening, PC-3; assay type: cell-based, human; settings: 10 µM single dose, PC-3, Prostate cancer
Experimental: as §1, §2, §3

RXF 393 = assay: NCI single (10 µM) dose SRB screening, RXF 393; assay type: cell-based, human; settings: 10 µM single dose, RXF 393, Renal cancer
Experimental: as §1, §2, §3

HL-60(TB) = assay: NCI single (10 µM) dose SRB screening, HL-60(TB); assay type: cell-based, human; settings: 10 µM single dose, Leukaemia
Experimental: as §1, §2, §3

NCI-H226 = assay: NCI single (10 µM) dose SRB screening, NCI-H226; assay type: cell-based, human; settings: 10 µM single dose, NCI-H226, NSC lung cancer
Experimental: as §1, §2, §3

COLO 205 = assay: NCI single (10 µM) dose SRB screening, COLO 205; assay type: cell-based, human; settings: 10 µM single dose, COLO 205, Colon cancer
Experimental: as §1, §2, §3

SK-OV-3 = assay: NCI single (10 µM) dose SRB screening, SK-OV-3; assay type: cell-based, human; settings: 10 µM single dose, SK-OV-3, Ovarian cancer
Experimental: as §1, §2, §3

SK-MEL-28 = assay: NCI single (10 µM) dose SRB screening, SK-MEL-28; assay type: cell-based, human; settings: 10 µM single dose, SK-MEL-28, Melanoma
Experimental: as §1, §2, §3

RPMI-8226 = assay: NCI single (10 µM) dose SRB screening, RPMI-8226; assay type: cell-based, human; settings: 10 µM single dose, RPMI-8226, Leukaemia
Experimental: as §1, §2, §3

[1] = tested on: 59 human tumour cell lines; assay: NCI single (10 µM) dose screening, whole panel; assay type: cell-based; settings: 10 µM single dose; for Sensitive cells no.: number of the 59 cell lines with GI % more than 20%; for inhibition at 10 µM: Homo sapiens, SRB assay, mean over NCI panel, read-out: mean percentage growth inhibition (mean% GI)
Experimental: as §1, §2, §3

SMILES | GI % (OVCAR-4) | GI % (UACC-257) | Ki (hCA I) [µM] | GI % (SF-539) [%] | GI % (KM 12) [%] | GI % (CCRF-CEM) [%] | GI % (NCI/ADR-RES) [%] | GI % (NCI-H460) | GI % (SF-295) [%] | GI % (SN 12 C) | GI % (BT-549) | GI % (SK-MEL-2) | GI % (SK-MEL-5) | GI % (MOLT-4) [%] | GI % (MDA-MB-468) [%] | GI % (MDA-MB-231) [%] | GI % (K-562) [%] | GI % (HCC-2998) | GI % (PC-3) | GI % (RXF 393) | other results
Cc1nc(-c2cc3ccccc3oc2=O)ccc1C(=O)/C=C/c1ccccn1 [Compound 5l, 3-(6-Methyl-5-[(2E)-3-(pyridin-2-yl)prop-2-enoyl]pyridin-2-yl)-2H-chromen-2-one] | – (Only GI % more than 20% are displayed.) | – (Only GI % more than 20% are displayed.) | > 100 | 97 | 93 | 93 | 22 | 58% | 28 | 52% | – (Only GI % more than 20% are displayed.) | – (Only GI % more than 20% are displayed.) | – (Only GI % more than 20% are displayed.) | 72 | 39 | 87 | 92 | 33% | 31% | 67% | GI % (HL-60(TB)): 67%; GI % (NCI-H226): – (Only GI % more than 20% are displayed.); GI % (COLO 205): – (Only GI % more than 20% are displayed.); GI % (SK-OV-3): – (Only GI % more than 20% are displayed.); GI % (SK-MEL-28): – (Only GI % more than 20% are displayed.); GI % (RPMI-8226): 136%; Sensitive cells no. [1]: 42; inhibition at 10 µM [1]: 50%
Cc1nc(-c2cc3ccccc3oc2=O)ccc1C(=O)/C=C/c1ccc(N2CCOCC2)cc1 [Compound 5g, 3-(6-Methyl-5-[(2E)-3-[4-(morpholin-4-yl)phenyl]prop-2-enoyl]pyridin-2-yl)-2H-chromen-2-one] | 27% | – (Only GI % more than 20% are displayed.) | > 100 | 54 | 31 | 27 | 32 | – (Only GI % more than 20% are displayed.) | 33 | – (Only GI % more than 20% are displayed.) | 23% | – (Only GI % more than 20% are displayed.) | 28% | 33 | 54 | 45 | 62 | – (Only GI % more than 20% are displayed.) | – (Only GI % more than 20% are displayed.) | – (Only GI % more than 20% are displayed.) | GI % (HL-60(TB)): 61%; GI % (NCI-H226): – (Only GI % more than 20% are displayed.); GI % (COLO 205): – (Only GI % more than 20% are displayed.); GI % (SK-OV-3): – (Only GI % more than 20% are displayed.); GI % (SK-MEL-28): 27%; GI % (RPMI-8226): – (Only GI % more than 20% are displayed.); Sensitive cells no. [1]: 31; inhibition at 10 µM [1]: 28%
